Laboratory results reported in patent publication US20060166905A1, “Aivlosin for the treatment of disease due to brachyspira pilosicoli or ornithobacterium rhinotracheale” (ECO Animal Health, LTD., priority 2003, published 2006).
≈ marks a conversion by molar mass, not a printed value. Read-outs that look alike come from different tables or passages of the source.

How the values were obtained:
Type in all cases: cell-based
[1] = test system: Brachyspira pilosicoli; experiment: MIC of aivlosin by antibiotic dilution method in agar plates
Protocol: Determination of Minimum Inhibitory Concentration (MIC) of Aivlosin Against Brachyspira pilosicoli
(§1) The MIC of acetyl isovaleryltylosin was determined against 5 field strains of Brachyspira pilosicoli isolated from different pig populations in various parts of England using an antibiotic dilution method. Four replicates of 0.2 ml of each isolate were inoculated into agar plates prepared with antibiotic concentrations from 0.78 to 200 μg/ml. A strain of Brachyspira hyodysenteriae (P18A), for which the MIC for acetyl isovaleryltylosin was already known, was used as a control.

[2] = test system: Brachyspira hyodysenteriae (P18A); experiment: MIC by antibiotic dilution method in agar plates, control strain; details: Control P1 8A
Protocol: as §1

[3] = test system: Ornithobacterium rhinotracheale; experiment: MIC test, twofold dilution in serum broth; details: for MIC: Ornithobacterium rhinotracheale, read-out: concentration that inhibited the growth (MIC)
Protocol: Testing of Aivlosin and Tilmicosin (Pulmotil) Against Ornithobacterium rhinotracheale Using the MIC (Minimum Inhibitory Concentration) Test
The following antibiotics were each tested against four isolates of Ornithobacterium rhinotracheale (OR):
The antibiotics were tested against the following isolates of OR:
The concentration needed of each antibiotic was calculated according to its active ingredient.
The four freeze dried bacterial isolates of Ornithobacterium rhinotracheale were reconstituted, inoculated into 10 ml serum broth (supplied by OBP, code 655) and incubated at 37° C. for 48 hours. After incubation the optical density (OD) of each culture was read at 540 nm. To verify purity the cultures were plated out onto Blood Tryptose agar plates, incubated at 37° C., using 5 % CO2 conditions, for 48 hours after which the plates were examined for any contaminants.
12 tubes per isolate for each of the antibiotics were placed into a test tube rack. 2 ml serum broth was dispensed into each of the tubes. 2 ml of the antibiotic were then added to the first tube in the respective row and a twofold dilution were made (32 μg/ml-0.0625 μg/ml). 20 μl of the bacteria was then added to 11 of the tubes. The 12th tube, i.e. negative control received neither antibiotic nor bacteria. The 11th tube i.e. positive control only received 20 μl bacteria. All the tubes were then incubated at 37° C. and the MIC read after 48 hours incubation

[4] = even at relatively low concentrations

SMILES | preventing the growth of Brachyspira pilosicoli [1, 4] | MIC ([1]; field strain 0P0204-10-97(4)) [mg/L] | MIC ([1]; field strain P0098-10-97) [mg/L] | MIC ([1]; field strain P0352-10-98) [mg/L] | MIC ([1]; field strain P0525-01-98) [mg/L] | MIC ([1]; field strain P0730-09-97) [mg/L] | MIC range ([1]; field strains, with the exception of isolate P0204-10-97 (4)) [mg/L] | MIC [2] [mg/L] | preventing the growth of Ornithobacterium rhinotracheale [3, 4] | concentration that inhibited the growth (MIC) ([3]; the isolates tested (four)) [mg/L] | MIC ([3]; the fourth isolate) [mg/L] | MIC ([3]; three of the isolates tested) [mg/L]
CCC1OC(=O)CC(OC(C)=O)C(C)C(OC2OC(C)C(OC3CC(C)(O)C(OC(=O)CC(C)C)C(C)O3)C(N(C)C)C2O)C(CC=O)CC(C)C(=O)C=CC(C)=CC1COC1OC(C)C(O)C(OC)C1OC (stereo not drawn) [Aivlosin, 3-O-acetyl-4″-O-isovaleryl-tylosin] | particularly effective | <0.781 | 25.0 | 6.25 | 6.25 | 12.5 | 6.25 to 25.0 | 12.5 (≈ 12 µM) | particularly effective | 0.5 | – | –
CC[C@H]1OC(=O)C[C@@H](O)[C@H](C)[C@@H](O[C@@H]2O[C@H](C)[C@@H](O)[C@H](N(C)C)[C@H]2O)[C@@H](CCN2C[C@H](C)C[C@H](C)C2)C[C@@H](C)C(=O)/C=C/C(C)=C/[C@@H]1CO[C@@H]1O[C@H](C)[C@@H](O)[C@@H](OC)[C@H]1OC [Pulmotil, Tilmicosin] | – | – | – | – | – | – | – | – | – | – | 8 (≈ 9.2 µM) | 4 (≈ 4.6 µM)
